# Reference: patent USRE34165E, “Potent thymopentin analogs” (Ortho Pharmaceutical Corporation, priority 1990, dated 1993)
# Like-named read-outs stand apart in the source and are kept apart here. Non-standard residues stand in square brackets, D forms with d. Residues, ends and D or L forms follow the SMILES beside them. No end group written: not given here. Aib = CC(C)(N)C(=O)O
# How the values were obtained:
# [1] = test system: cell membrane receptor of the intact CEM cell; assay: Cyclic-GMP assay: induction of cyclic-GMP production in intact CEM cells; type: cell-based, human; settings: for Concentration of c-GMP Produced: 4-5 min at 37° C.; for Result on the cyclic-GMP assay (in words): in comparison with thymopentin
# From the text: This biological activity is evidenced by an assay measuring induction of cyclic-GMP production in a human T-cell line in comparison with thymopoietin. The induction of c-GMP production by a test peptide in this assay indicates the ability of the test peptide to bind to the thymopoietin receptor site on the cell and induce thymopoietin-like biological activity. […] Because of the expense of preparing peptides and the rapid degradation of peptides often observed in living systems, peptides such as those herein which have increased potency are greatly prized.
# This assay measures the ability of the test peptide to bind to the cell membrane receptor of the intact CEM cell and selectively stimulate production of cyclic-GMP, as does thymopoietin itself.
# The CEM cell line was obtained from the American Type Culture Collection and was cultured in RPMI-1640 medium supplemented with 10% heat-inactivated fetal bovine serum, 10% heat-inactivated horse serum, 2 mM L-glutamine, and 50 µg/ml gentamycin at 37° C. in a humid atmosphere containing 5 percent CO2, to a final density of 3-4×10^6 cells/ml. At this concentration, the cells were in the early stationary phase of the growth curve and were judged greater than 90% viable by trypan blue exclusion. The cells were grown for four days and harvested. After harvesting, the cells were washed three times in PBS and were resuspended in RPMI-1640 medium at a concentration of 3.12×10^7 cells/ml. After the cells had been allowed to equilibrate at 37° C. for 30 min, various concentrations of the test peptides were added in a volume of 25 μl of medium to 1 ml of cells, the initial concentration of test compound added being selected to yield the desired final concentration of test peptide in the medium. The test peptide was mixed instantly with the cell suspension. The incubation was allowed to proceed in a shaking water bath at 37° C. for 4-5 min and was then terminated by addition of ice-cold trichloroacetic acid (10%; 1 ml).
# The cells in TCA were then homogenized and sonicated to release cyclic nucleotide. The resulting suspension was centrifuged at 3000 g for 20 min at 4° C. and the resulting precipitate was dissolved in 0.1N NaOH and sonicated for a further 30 minutes, after which the protein content was determined by the method of Cadman, et al., Anal. Biochem., 96, 21-23 (1979). The TCA was removed from the supernatant fraction by extracting four times with 5 ml of water-saturated diethyl ether. After the final extraction, the remaining traces of ether were removed from the supernatant fraction by heating it for 10 min in a 50° C. water bath. After lyophilization of the extracted supernatant fraction, it was reconstituted in 50 mM acetate buffer, ph 6.2, for radioimmunoassay of cyclic nucleotide using the assay kit NEX-133, New England Nuclear, Boston, Mass. 02113.
# A conventional competition radioimmunoassay against radio labelled cyclic GMP was conducted to determine the amount of cyclic GMP induced by each concentration of test peptide. Results are shown in FIG. 1 and in the following table, in which representative subject peptides have been assayed in comparison with thymopentin (designated "TP-5") and a "nonsense" peptide H-ASP-ARG-TYR-LYS-VAL-OH.
# [2] = test system: isolated thymopoietin cell surface receptor protein from CEM cells; settings: for Displacement of 125I-TP (in words): comparison peptides
# [3] = Concentration of Peptide 10^0 μg/ml
# [4] = Concentration of Peptide 10^1 μg/ml
# [5] = at equivalent concentrations, with thymopoietin 37-45 nonapeptide, 12 h incubation
# [6] = Concentration of Peptide 10^3 μg/ml
# [7] = Concentration of Peptide 10^4 μg/ml
compound,measurement,setting,value
"CC(C)[C@H](NC(=O)[C@H](CC(=O)O)NC(=O)[C@H](CCCCN)NC(=O)[C@@H](N)CCCNC(=N)N)C(=O)N[C@@H](Cc1c[nH]cn1)C(=O)O [H--ARG--LYS--ASP--VAL--HIS--OH, Arginyl-Lysyl-Aspartyl-Valyl-Histidine] (H-RKDVH-OH)",Concentration of c-GMP Produced,[1]; [3],0 picomoles/ml
same,Concentration of c-GMP Produced,[1]; [4],9 picomoles/ml
same,Displacement of 125I-TP relative to that caused by thymopoietin self-displacement,[2]; [5],at least 50%
"CC(C)[C@H](NC(=O)[C@H](CC(=O)O)NC(=O)[C@H](CCCCN)NC(=O)[C@@H](N)CCCNC(=N)N)C(=O)N[C@@H](Cc1ccccc1)C(=O)O [H--ARG--LYS--ASP--VAL--PHE--OH, Arginyl-Lysyl-Aspartyl-Valyl-Phenylalanine] (H-RKDVF-OH)",Concentration of c-GMP Produced,[1]; [3],6 picomoles/ml
same,Concentration of c-GMP Produced,[1]; [4],9 picomoles/ml
same,Displacement of 125I-TP relative to that caused by thymopoietin self-displacement,[2]; [5],at least 50%
"CC(C)[C@H](NC(=O)[C@H](CC(=O)O)NC(=O)[C@@H]1CCCN1C(=O)[C@@H](N)CCCNC(=N)N)C(=O)N[C@@H](Cc1ccccc1)C(=O)O [H--ARG--PRO--ASP--VAL--PHE--OH, Arginyl-Prolyl-Aspartyl-Valyl-Phenylalanine] (H-RPDVF-OH)",Concentration of c-GMP Produced,[1]; [3],0 picomoles/ml
same,Concentration of c-GMP Produced,[1]; [4],12 picomoles/ml
same,Displacement of 125I-TP relative to that caused by thymopoietin self-displacement,[2]; [5],at least 50%
"CC(C)[C@H](NC(=O)[C@H](CCCCN)NC(=O)[C@H](Cc1ccc(O)cc1)NC(=O)[C@H](CCCNC(=N)N)NC(=O)[C@@H](N)CC(=O)O)C(=O)O [H--ASP--ARG--TYR--LYS--VAL--OH, H-ASP-ARG-TYR-LYS-VAL-OH, reference compound] (H-DRYKV-OH)",Concentration of c-GMP Produced,[1]; [6],0 picomoles/ml
same,Concentration of c-GMP Produced,[1]; [7],0 picomoles/ml
same,Concentration of c-GMP Produced,[1]; Concentration of Peptide 10^5 μg/ml,0 picomoles/ml
"CC(C)[C@H](NC(=O)[C@H](CC(=O)O)NC(=O)[C@H](CCCCN)NC(=O)[C@@H](N)CCCNC(=N)N)C(=O)N[C@@H](Cc1c[nH]c2ccccc12)C(N)=O [H-ARG-LYS-ASP-VAL-TRP-NH2, Arginyl-Lysyl-Aspartyl-Valyl-Tryptophan amide] (H-RKDVW-NH2)",Result on the cyclic-GMP assay (in words),[1],superior results
same,Displacement of 125I-TP relative to that caused by thymopoietin self-displacement,[2]; [5],at least 50%
"CC(C)[C@H](NC(=O)[C@H](CC(=O)O)NC(=O)[C@H](CCCCN)NC(=O)[C@@H](N)CCCNC(=N)N)C(=O)N[C@@H](Cc1c[nH]c2ccccc12)C(=O)O [H-ARG-LYS-ASP-VAL-TRP-OH, Arginyl-Lysyl-Aspartyl-Valyl-Tryptophan] (H-RKDVW-OH)",Result on the cyclic-GMP assay (in words),[1],superior results
same,Displacement of 125I-TP relative to that caused by thymopoietin self-displacement,[2]; [5],at least 50%
"CC(=O)N[C@@H](CCCNC(=N)N)C(=O)NC(C)(C)C(=O)N[C@@H](CC(=O)O)C(=O)N[C@H](C(=O)N[C@@H](Cc1ccccc1)C(N)=O)C(C)C [N-α-acetyl-ARG-AIB-ASP-VAL-PHE-NH2, Acetyl-Arginyl-α-Aminoisobutyryl-Aspartyl-Valyl-Phenylalaminamide] (Ac-R[Aib]DVF-NH2)",Result on the cyclic-GMP assay (in words),[1],superior results
"CC(=O)N[C@@H](CCCNC(=N)N)C(=O)N1CCC[C@H]1C(=O)N[C@@H](CC(=O)O)C(=O)N[C@H](C(=O)N[C@@H](Cc1ccccc1)C(N)=O)C(C)C [N-α-acetyl-ARG-PRO-ASP-VAL-PHE-NH2, Acetyl-Arginyl-Prolyl-Aspartyl-Valyl-Phenylalanineamide] (Ac-RPDVF-NH2)",Result on the cyclic-GMP assay (in words),[1],superior results
"CC(C)[C@H](NC(=O)[C@H](CC(=O)O)NC(=O)[C@H](CCCCN)NC(=O)[C@@H](N)CCCN=C(N)N)C(=O)N[C@@H](Cc1ccc(O)cc1)C(=O)O [TP-5, thymopentin] (H-RKDVY-OH)",Concentration of c-GMP Produced,[1]; [3],0 picomoles/ml
same,Concentration of c-GMP Produced,[1]; [4],4.5 picomoles/ml
same,Concentration of c-GMP Produced,[1]; Concentration of Peptide 10^2 μg/ml,9 picomoles/ml
same,Concentration of c-GMP Produced,[1]; [6],12 picomoles/ml
same,Concentration of c-GMP Produced,[1]; [7],14 picomoles/ml
C[C@H](N)C(=O)NCC(=O)N[C@H]1CSSC[C@@H](C(=O)O)NC(=O)[C@H](CO)NC(=O)[C@H]([C@@H](C)O)NC(=O)[C@H](Cc2ccccc2)NC(=O)[C@H]([C@@H](C)O)NC(=O)[C@H](CCCCN)NC(=O)[C@H](Cc2c[nH]c3ccccc23)NC(=O)[C@H](Cc2ccccc2)NC(=O)[C@H](Cc2ccccc2)NC(=O)[C@H](CC(N)=O)NC(=O)[C@H](CCCCN)NC1=O [somatostatin],Displacement of 125I-TP (in words),[2],no detectable displacement
"CC(=O)N[C@@H](CCCNC(=N)N)C(=O)N1CCC[C@H]1C(=O)N[C@@H](CC(=O)O)C(=O)N[C@H](C(=O)N[C@@H](Cc1ccccc1)C(=O)O)C(C)C [α-acetyl-ARG--PRO--ASP--VAL--PHE--OH, N^α -Acetyl-Arginyl-Prolyl-Aspartyl-Valyl-Phenylaline] (Ac-RPDVF-OH)",Concentration of c-GMP Produced,[1]; [3],7 picomoles/ml
same,Concentration of c-GMP Produced,[1]; [4],15 picomoles/ml
same,Displacement of 125I-TP relative to that caused by thymopoietin self-displacement,[2],at least 50%
"N^α -Acetyl-Arginyl-3,4-dehydro-Prolyl-Aspartyl-Valyl-Tyrosineamide",Result on the cyclic-GMP assay (in words),[1],superior results
"adrenocorticotropic hormone (SYSMEHFRWGKPVGKKRRPVKVYPNGAEDESAEAFPLEF; Corticotropin; UniProt P01189 138-176, looked up) [ACTH]",Displacement of 125I-TP (in words),[2],no detectable displacement
"corticotropin-releasing factor (SEEPPISLDLTFHLLREVLEMARAEQLAQQAHSNRKLMEII; ends and bridges not checked; UniProt P06850 154-194, looked up) [CRF]",Displacement of 125I-TP (in words),[2],no detectable displacement
facteur thymique serique [FTS],Displacement of 125I-TP (in words),[2],no detectable displacement
growth hormone,Displacement of 125I-TP (in words),[2],no detectable displacement
ubiquitin,Displacement of 125I-TP (in words),[2],no detectable displacement
"β-endorphin (YGGFMTSEKSQTPLVTLFKNAIIKNAYKKGE; Beta-endorphin; UniProt P01189 237-267, looked up)",Displacement of 125I-TP (in words),[2],no detectable displacement
